Molecules are shown by their SMILES. Bridge positions count the residues as written; N and C are the ends. Peptide text beside a SMILES is read from it.

The nature of the assay: Inhibition of matriptase (unknown origin) using Ac-RQFRpNA substrate by spectrophotometry method.
For orientation: Ki means the equilibrium dissociation constant of an inhibitor or competing ligand from its target. In turn, `CC[C@H](C)[C@@H]1NC(=O)[C@@H]2CCCN2C(=O)[C@@H]2CCCN2C(=O)[C@H]([C@@H](C)CC)NC(=O)[C@H](CO)NC(=O)[C@H](CCCNC(=N)N)NC(=O)[C@H]([C@@H](C)O)NC(=O)[C@@H]2CSSC[C@H](NC1=O)C(=O)N[C@@H](Cc1ccccc1)C(=O)N1CCC[C@H]1C(=O)N[C@H](C(=O)O)CC(=O)NCC(=O)N[C@@H](CCCNC(=N)N)C(=O)N2` (GRCTRSIPPICFPD-OH; disulfide 3-11; lactam N-14) registered an inhibitory constant (Ki) of 546 nM. With `CC[C@H](C)[C@@H]1NC(=O)[C@@H]2CCCN2C(=O)[C@@H]2CCCN2C(=O)[C@H](Cc2ccc(O)cc2)NC(=O)[C@H](CO)NC(=O)[C@H](CCCNC(=N)N)NC(=O)[C@H]([C@@H](C)O)NC(=O)[C@@H]2CSSC[C@H](NC1=O)C(=O)N[C@@H](Cc1ccccc1)C(=O)N1CCC[C@H]1C(=O)N[C@H](C(=O)O)CC(=O)NCC(=O)N[C@@H](CCCNC(=N)N)C(=O)N2` (GRCTRSYPPICFPD-OH; disulfide 3-11; lactam N-14) the figure was over 50000 nM; with `C[C@@H](O)[C@@H]1NC(=O)[C@@H](NC(=O)[C@H](CCCNC(=N)N)NC(=O)CN)CSSC[C@@H](C(=O)N[C@@H](Cc2cnc[nH]2)C(=O)O)NC(=O)[C@H](CCCNC(=N)N)NC(=O)[C@@H]2CCCN2C(=O)[C@@H]2CCCN2C(=O)[C@H](CC(=O)O)NC(=O)[C@H](CO)NC(=O)[C@H](CCCCN)NC1=O` (H-GRCTKSDPPRCH-OH; disulfide 3-11), 87 nM; with `CC[C@H](C)[C@@H]1NC(=O)[C@H](CO)NC(=O)[C@H](CCCCN)NC(=O)[C@H]([C@@H](C)O)NC(=O)[C@@H](NC(=O)[C@H](CCCNC(=N)N)NC(=O)CN)CSSC[C@@H](C(=O)N[C@@H](Cc2cnc[nH]2)C(=O)O)NC(=O)[C@H](CCCNC(=N)N)NC(=O)[C@@H]2CCCN2C(=O)[C@@H]2CCCN2C1=O` (H-GRCTKSIPPRCH-OH; disulfide 3-11), 82 nM.

The values above are taken from BindingDB's records for doi:10.1021/acs.jmedchem.5b01148 (Queensland University of Technology, 2015).
